Reference: paper PMC10373466 (ACS Omega, 2023)

System: not listed separately
Assay: In vitro hepatotoxicity MTT assay
Conditions: human

Row | Compound | IC50 at 24 h [µM]
1 | COc1cccc2c1C(=O)c1c(O)c3c(c(O)c1C2=O)C[C@@](O)(C(=O)CO)C[C@@H]3O[C@H]1C[C@H](N)[C@H](O)[C@H](C)O1 [Doxorubicin, reference compound] | 4.5 ± 0.2
2 | Nc1c2c(nc3ccccc13)CCCC2 [Tacrine, reference compound] | 17.5 ± 1.1

Biological target: hAChE (Homo sapiens, UniProt P22303)
Assay: In vitro AChE inhibition assay
Assay type: biochemical
Conditions: in vitro AChE inhibition IC50 ± SD, Ellman method, n = 3

hAChE, sequence (P22303 32-614): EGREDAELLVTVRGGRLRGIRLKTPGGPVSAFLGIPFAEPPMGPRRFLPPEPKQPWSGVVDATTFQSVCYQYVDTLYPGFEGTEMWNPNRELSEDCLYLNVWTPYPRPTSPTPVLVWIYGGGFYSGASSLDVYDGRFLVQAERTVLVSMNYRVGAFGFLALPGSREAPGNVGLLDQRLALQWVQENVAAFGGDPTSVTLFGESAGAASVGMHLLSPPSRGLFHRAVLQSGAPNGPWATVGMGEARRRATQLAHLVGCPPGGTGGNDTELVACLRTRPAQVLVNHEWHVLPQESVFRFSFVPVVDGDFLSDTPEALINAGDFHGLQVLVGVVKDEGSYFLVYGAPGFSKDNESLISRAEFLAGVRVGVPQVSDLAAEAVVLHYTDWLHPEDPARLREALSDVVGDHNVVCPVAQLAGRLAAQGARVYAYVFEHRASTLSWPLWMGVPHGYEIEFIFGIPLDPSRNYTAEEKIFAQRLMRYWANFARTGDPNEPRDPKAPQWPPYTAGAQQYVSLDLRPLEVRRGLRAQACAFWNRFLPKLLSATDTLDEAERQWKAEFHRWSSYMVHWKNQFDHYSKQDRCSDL

Row | Compound | IC50 [µM]
3 | Nc1c2c(nc3c1C(c1cccc(Br)c1)c1ccc(O)cc1O3)CCCC2 (centres unmarked) [3a, 11-Amino-12-(3-bromophenyl)-7,9,10,12-tetrahydro-8H-chromeno[2,3-b]quinolin-3-ol] | 3.48 ± 0.19
4 | COc1cccc(C2c3ccc(O)cc3Oc3nc4c(c(N)c32)CCCC4)c1 (centres unmarked) [3b, 11-Amino-12-(3-methoxyphenyl)-7,9,10,12-tetrahydro-8H-chromeno[2,3-b]quinolin-3-ol] | 26.7 ± 1.42
5 | Nc1c2c(nc3c1C(c1cccc([N+](=O)[O-])c1)c1ccc(O)cc1O3)CCCC2 (centres unmarked) [3c, 11-Amino-12-(3-nitrophenyl)-7,9,10,12-tetrahydro-8H-chromeno[2,3-b]quinolin-3-ol] | 15.1 ± 0.8
6 | Nc1c2c(nc3c1C(c1ccc(Cl)c(Cl)c1)c1ccc(O)cc1O3)CCCC2 (centres unmarked) [3d, 11-Amino-12-(3,4-dichlorophenyl)-7,9,10,12-tetrahydro-8H-chromeno[2,3-b]quinolin-3-ol] | 5.31 ± 0.28
7 | COc1ccccc1C1c2ccc(O)cc2Oc2nc3c(c(N)c21)CCCC3 (centres unmarked) [3e, 11-Amino-12-(2-methoxyphenyl)-7,9, 10, 12-tetrahydro-8H-chromeno[2,3-b]quinolin-3-ol] | 5.88 ± 0.31
8 | Nc1c2c(nc3c1C(c1cccc(Br)c1)c1ccc(OS(=O)(=O)c4ccc(F)cc4)cc1O3)CCCC2 (centres unmarked) [4a, 11-Amino-12-(3-bromophenyl)-7,9,10,12-tetrahydro-8H-chromeno[2,3-b]quinolin-3-yl-4-fluorobenzenesulfonate] | 3.88 ± 0.21
9 | COc1cccc(C2c3ccc(OS(=O)(=O)c4ccc(F)cc4)cc3Oc3nc4c(c(N)c32)CCCC4)c1 (centres unmarked) [4b, 11-Amino-12-(3-methoxyphenyl)-7,9,10,12-tetrahydro-8H-chromeno[2,3-b]quinolin-3-yl-4-fluorobenzenesulfonate] | 13.5 ± 0.72
10 | Nc1c2c(nc3c1C(c1ccc(Cl)c(Cl)c1)c1ccc(OS(=O)(=O)c4ccc(F)cc4)cc1O3)CCCC2 (centres unmarked) [4d, 11-Amino-12-(3,4-dichlorophenyl)-7,9,10,12-tetrahydro-8H-chromeno[2,3-b]quinolin-3-yl-4-fluorobenzenesulfonate] | 6.09 ± 0.32
11 | COc1ccccc1C1c2ccc(OS(=O)(=O)c3ccc(F)cc3)cc2Oc2nc3c(c(N)c21)CCCC3 (centres unmarked) [4e, 11-Amino-12-(2-methoxyphenyl)-7,9,10,12-tetrahydro-8H-chromeno[2,3-b]quinolin-3-yl-4-fluorobenzenesulfonate] | 22.4 ± 1.19
12 | COc1ccc(S(=O)(=O)Oc2ccc3c(c2)Oc2nc4c(c(N)c2C3c2cccc(Br)c2)CCCC4)cc1 (centres unmarked) [4f, 11-Amino-12-(3-bromophenyl)-7,9,10,12-tetrahydro-8H-chromeno[2,3-b]quinolin-3-yl-4-methoxybenzenesulfonate] | 0.73 ± 0.03
13 | COc1ccc(S(=O)(=O)Oc2ccc3c(c2)Oc2nc4c(c(N)c2C3c2cccc([N+](=O)[O-])c2)CCCC4)cc1 (centres unmarked) [4h, 11-Amino-12-(3-nitrophenyl)-7,9,10,12-tetrahydro-8H-chromeno[2,3-b]quinolin-3-yl-4-methoxybenzenesulfonate] | 1.53 ± 0.07
14 | COc1ccc(S(=O)(=O)Oc2ccc3c(c2)Oc2nc4c(c(N)c2C3c2ccc(Cl)c(Cl)c2)CCCC4)cc1 (centres unmarked) [4i, 11-Amino-12-(3,4-dichlorophenyl)-7,9,10,12-tetrahydro-8H-chromeno[2,3-b]quinolin-3-yl-4-methoxybenzenesulfonate] | 2.2 ± 0.1
15 | COc1ccc(S(=O)(=O)Oc2ccc3c(c2)Oc2nc4c(c(N)c2C3c2ccccc2OC)CCCC4)cc1 (centres unmarked) [4j, 11-Amino-12-(2-methoxyphenyl)-7,9,10,12-tetrahydro-8H-chromeno[2,3-b]quinolin-3-yl-4-methoxybenzenesulfonate] | 5.16 ± 0.22
16 | Cc1ccc(S(=O)(=O)Oc2ccc3c(c2)Oc2nc4c(c(N)c2C3c2cccc(Br)c2)CCCC4)cc1 (centres unmarked) [4k, 11-Amino-12-(3-bromophenyl)-7,9,10,12-tetrahydro-8H-chromeno[2,3-b]quinolin-3-yl-4-methylbenzenesulfonate] | 9.35 ± 0.4
17 | COc1cccc(C2c3ccc(OS(=O)(=O)c4ccc(C)cc4)cc3Oc3nc4c(c(N)c32)CCCC4)c1 (centres unmarked) [4l, 11-Amino-12-(3-methoxyphenyl)-7,9,10,12-tetrahydro-8H-chromeno[2,3-b]quinolin-3-yl-4-methylbenzenesulfonate] | 2.62 ± 0.11
18 | Cc1ccc(S(=O)(=O)Oc2ccc3c(c2)Oc2nc4c(c(N)c2C3c2cccc([N+](=O)[O-])c2)CCCC4)cc1 (centres unmarked) [4m, 11-Amino-12-(3-nitrophenyl)-7,9,10,12-tetrahydro-8H-chromeno[2,3-b]quinolin-3-yl-4-methylbenzenesulfonate] | 11.1 ± 0.48
19 | COc1ccccc1C1c2ccc(OS(=O)(=O)c3ccc(C)cc3)cc2Oc2nc3c(c(N)c21)CCCC3 (centres unmarked) [4o, 11-Amino-12-(2-methoxyphenyl)-7,9,10,12-tetrahydro-8H-chromeno[2,3-b]quinolin-3-yl-4-methylbenzenesulfonate] | 1.03 ± 0.04
20 | Nc1c2c(nc3c1C(c1cccc(Br)c1)c1ccc(OS(=O)(=O)c4ccccc4)cc1O3)CCCC2 (centres unmarked) [4p, 11-Amino-12-(3-bromophenyl)-7,9,10,12-tetrahydro-8H-chromeno[2,3-b]quinolin-3-yl-benzenesulfonate] | 1.34 ± 0.07
21 | COc1cccc(C2c3ccc(OS(=O)(=O)c4ccccc4)cc3Oc3nc4c(c(N)c32)CCCC4)c1 (centres unmarked) [4q, 11-Amino-12-(3-methoxyphenyl)-7,9,10,12-tetrahydro-8H-chromeno[2,3-b]quinolin-3-yl-benzenesulfonate] | 2.45 ± 0.12
22 | Nc1c2c(nc3c1C(c1cccc([N+](=O)[O-])c1)c1ccc(OS(=O)(=O)c4ccccc4)cc1O3)CCCC2 (centres unmarked) [4r, 11-Amino-12-(3-nitrophenyl)-7,9,10,12-tetrahydro-8H-chromeno[2,3-b]quinolin-3-yl-benzenesulfonate] | 5.5 ± 0.28
23 | Nc1c2c(nc3c1C(c1ccc(Cl)c(Cl)c1)c1ccc(OS(=O)(=O)c4ccccc4)cc1O3)CCCC2 (centres unmarked) [4s, 11-Amino-12-(3,4-dichlorophenyl)-7,9,10,12-tetrahydro-8H-chromeno[2,3-b]quinolin-3-yl-benzenesulfonate] | 9.69 ± 0.49
24 | COc1ccccc1C1c2ccc(OS(=O)(=O)c3ccccc3)cc2Oc2nc3c(c(N)c21)CCCC3 (centres unmarked) [4t, 11-Amino-12-(2-methoxyphenyl)-7,9,10,12-tetrahydro-8H-chromeno[2,3-b]quinolin-3-yl-benzenesulfonate] | 24 ± 1.21
25 | Nc1c2c(nc3c1C(c1cccc(Br)c1)c1ccc(OCC(=O)c4ccc(Cl)cc4)cc1O3)CCCC2 (centres unmarked) [5a, 2-[11-Amino-12-(3-bromophenyl)-7,9,10,12-tetrahydro-8H-chromeno[2,3-b]quinolin-3-yl]oxy-1-(4-chlorophenyl)ethan-1-one] | 0.99 ± 0.05
26 | COc1cccc(C2c3ccc(OCC(=O)c4ccc(Cl)cc4)cc3Oc3nc4c(c(N)c32)CCCC4)c1 (centres unmarked) [5b, 2-[11-Amino-12-(3-methoxyphenyl)-7,9,10,12-tetrahydro-8H-chromeno[2,3-b]quinolin-3-yl]oxy-1-(4-chlorophenyl)ethan-1-one] | 6.01 ± 0.3
27 | COc1ccccc1C1c2ccc(OCC(=O)c3ccc(Cl)cc3)cc2Oc2nc3c(c(N)c21)CCCC3 (centres unmarked) [5e, 2-[11-Amino-12-(2-methoxyphenyl)-7,9,10,12-tetrahydro-8H-chromeno[2,3-b]quinolin-3-yl]oxy-1-(4-chlorophenyl)ethan-1-one] | 0.75 ± 0.04
28 | Nc1c2c(nc3c1C(c1cccc(Br)c1)c1ccc(OCC(=O)c4ccccc4)cc1O3)CCCC2 (centres unmarked) [5f, 2-[11-Amino-12-(3-bromophenyl)-7,9,10,12-tetrahydro-8H-chromeno[2,3-b]quinolin-3-yl]oxy-1-phenylethan-1-one] | 1.14 ± 0.054
29 | COc1cccc(C2c3ccc(OCC(=O)c4ccccc4)cc3Oc3nc4c(c(N)c32)CCCC4)c1 (centres unmarked) [5g, 2-[11-Amino-12-(3-methoxyphenyl)-7,9,10,12-tetrahydro-8H-chromeno[2,3-b]quinolin-3-yl]oxy-1-phenylethan-1-one] | 31 ± 1.47
30 | Nc1c2c(nc3c1C(c1cccc([N+](=O)[O-])c1)c1ccc(OCC(=O)c4ccccc4)cc1O3)CCCC2 (centres unmarked) [5h, 2-[11-Amino-12-(3-nitrophenyl)-7,9,10,12-tetrahydro-8H-chromeno[2,3-b]quinolin-3-yl]oxy-1-phenylethan-1-one] | 10.2 ± 0.48
31 | COc1ccccc1C1c2ccc(OCC(=O)c3ccccc3)cc2Oc2nc3c(c(N)c21)CCCC3 (centres unmarked) [5j, 2-[11-Amino-12-(2-methoxyphenyl)-7,9,10,12-tetrahydro-8H-chromeno[2,3-b]quinolin-3-yl]oxy-1-phenylethan-1-one] | 2.48 ± 0.12

Biological target: Aβ1–42 (Homo sapiens, UniProt P05067)
Assay: Self-induced Aβ1–42 aggregation inhibition
Assay type: biochemical
Conditions: read-out: Aβ1–42 (% inhibition at 10 μM)

Aβ1–42, sequence (P05067 672-713): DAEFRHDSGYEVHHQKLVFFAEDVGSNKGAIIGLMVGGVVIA

Row | Compound | inhibition at 10 µM [%]
32 | COc1cc(/C=C/C(=O)CC(=O)/C=C/c2ccc(O)c(OC)c2)ccc1O [Curcumin, reference compound] | 44
